Test results published in US20150359668A1, “LIGHT DELIVERY DEVICE AND RELATED COMPOSITIONS, METHODS AND SYSTEMS” (CALIFORNIA INSTITUTE OF TECHNOLOGY, priority 2011, published 2015).
Where “and” joins values, the source holds several entries; their conditions need not be identical. Identical values can stand only once. Like-named read-outs stand apart in the source and are kept apart here. Each block holds one compound with its values, some of them ahead of it.

How the values were obtained:
cornea [1] = conditions: fluorescein value used for riboflavin in earlier studies; cited from earlier work
sclera [2] = conditions: subconjunctival delivery; cited from earlier work
[3] = reaction with singlet oxygen; cited from earlier work
cornea [4] = experiment: drug diffusion into the cornea of intact eyes (extraction assay, diffusion model fit); conditions: for diffusivity, D / partition coefficient, k: from DPBS
Experimental: Siena for Medical Science supplied porcine eyes from 3-4 month old swine. Eyes were stored in ocular balanced saline solution on ice until use within 48 hours post mortem. […] The epithelial cell layer was removed by scraping with a scalpel. […] The drug solution containing the eye was gently agitated using a rocker for a specified “drug contact time” (tc,cornea ranging from 0 to 4 hours). After the drug contact time, the eye was removed from the drug solution, and excess solution on the cornea was dabbed away with a Kimwipe. The eye was dissected using a scalpel blade and a pair of scissors to cut around the corneoscleral limbus to separate out the cornea. The tissue section was placed onto a trephine punch to cut out a 9.5-mm diameter corneal cross-section.
(§1) Quantitative assay of the amount of drug delivered—Experiments were performed for five drug contact times (four samples each): for the cornea, tc,cornea=0.25, 0.5, 1, 2, and 4 hrs, and for the sclera, tc,sclera=0.5, 2, 4, 7.5, and 120 hrs. Each experiment was repeated four times. For each experiment, the 9.5-mm diameter tissue cross-section obtained as described above was placed into a 50 mL centrifuge tube and immersed in 50 mL of extractant (doubled-distilled water for cornea or DPBS for sclera) then placed on a rocker to extract the drug molecules (FIG. 40). […] After a first extraction time te,1 of 8 hours, the tissue specimen was then transferred into another 50 mL of fresh extractant and the extract was retained for analysis.
(§2) The concentration of the drug in the extract was determined using fluorimetry. […] The fluorescence of each extract was measured and concentration was determined based on calibration curves prepared for each compound using a series of solutions with known concentrations. The extraction process was repeated using successively longer extraction times until there was no detectable fluorescence in the supernatant.
(§3) Porcine eyes closely resemble a sphere with diameter ˜25 mm. The cornea and sclera are the targeted tissues and both have thicknesses that are on the order of 1 mm. Since these tissue thicknesses are less than a tenth of the diameter of the eye, they are modeled as semi-infinite slabs. Each tissue is approximated as a uniform material. Fick's diffusion equation is given by
(§4) where C(z,t) is the drug concentration inside the tissue, t is the time since the exterior surface of the tissue was placed in contact with the drug solution, z is the distance into the tissue from its exterior surface, and D is the diffusion coefficient. […] For short contact times, the concentration falls to zero before the profile reaches the endothelium. For longer contact times, the boundary condition that the concentration falls to zero far into the system is still used as a first approximation (neglecting the change in material properties at the endothelium and neglects different transport processes in the aqueous or vitreous).
(§5) where area represents the cross-sectional area of the tissue sample and L is the thickness of the tissue sample. At long drug contact time, the predicted concentration changes very slowly and approaches a value governed by the partition coefficient.
(§6) with i being the individual data point and N being the total data points used for the fit. Data fitting was performed by writing a program in MATLAB software.

sclera [5] = experiment: drug diffusion into the sclera of intact eyes (extraction assay, diffusion model fit); conditions: for diffusivity, D / partition coefficient, k: from DPBS
Text: Orbital tissues were removed with scissors to expose the sclera. […] After the contact time, the eye was removed from the drug solution, and excess solution on the sclera was dabbed away with a Kimwipe. The eye was dissected using a scalpel blade and a pair of scissors to obtain a posterior scleral section on the temporal side near the optic nerve. The tissue section was placed onto a trephine punch to cut out a 9.5-mm diameter cross-section.
as §1, §2, §3, §4, §5, §6

cornea [6] = conditions: sodium azide added to the riboflavin treatment solution; cited from earlier work
[7] = physiological pH; cited from earlier work
keratocytes = conditions: human, in vivo; cited from earlier work
posterior globe = conditions: rabbit, in vivo; cited from earlier work
collagen gel = collagen gel photorheology: storage modulus during photo-activated cross-linking; conditions: for cross-linking rate as % of the rate without singlet oxygen quenchers: in air; for modulus change during the last 10 minutes, no irradiation / ΔG′ over the 30-minute period without irradiation: 0.02% eosin Y or 0.1% riboflavin, 0 mW/cm^2; for modulus change during the 10 minutes after cessation of irradiation / change of storage modulus ΔG′ over the 30-minute irradiation: 0.02% eosin Y, 0.1% riboflavin; for modulus change during the 10 minutes after cessation of irradiation: 6 mW/cm^2, 3 mW/cm^2; for change of storage modulus ΔG′ over the 30-minute irradiation: 6 mW/cm^2 at 530±15 nm, 3 mW/cm^2 at 370±12 nm
cornea [8] = experiment: model of photodynamic collagen cross-linking profile in the cornea
Text: Design of experiments—The collagen gel photorheological technique discussed in Examples 29-31 was used to gather collagen cross-linking rate data in order to model the extent and distribution of cross-link formation in the tissue. Collagen gel samples have uniform drug concentration profiles based on the preparation technique developed Examples 29-31. The protocols for collagen gel preparation and photorheological measurement are described in the Methods Section of Example 29-31. The pairs of drug concentrations and collagen gel thicknesses were selected such that the intensity profile is approximately uniform throughout the sample. Based on light intensity calculations, this is achieved when the ratio of light penetration depth over sample thickness is 1.2. The light intensity profile in the sample is given by:
Design of the model—Photodynamic collagen cross-linking depends on both the local photosensitizer concentration and the light intensity which are functions of treatment parameters: drug concentration, contact time (duration the drug is in contact with the tissue), delay time (period between end of contact time and beginning of irradiation), and irradiation time (FIGS. 46A-46C). […] The concentration profile can be calculated using Fick's diffusion equation. The light intensity also varies along the tissue as determined by Beer's law. […]

cell viability = conditions: cited from earlier work
guinea pig eyes = experiment: guinea pig form-deprivation myopia and normal ocular growth after subconjunctival treatment; conditions: Set A, eyes enucleated immediately after treatment
sclera [9] = conditions: cited from earlier work
[10] = in the absence of oxygen (in argon), 30-minute irradiation
[11] = in the presence of oxygen (in air), 30-minute irradiation, 0.05% riboflavin 370 nm or 0.02% eosin Y 530 nm

Compound: O=C1OC2(c3ccc(O)cc3Oc3cc(O)ccc32)c2ccccc21 [fluorescein]
- diffusion coefficient, D (cornea [1]): 65 μm^2/s

Compound: CO[C@@]12[C@H](COC(N)=O)C3=C(C(=O)C(C)=C(N)C3=O)N1C[C@@H]1N[C@@H]12 [mitomycin-C]
- fraction of drug present on the surface of sponges able to diffuse into the sclera (sclera [2]): ~5%

Compound: N[C@@H](CS)C(=O)O [Cystei e, Cysteine]
- k1O2 × 10^−7 M^−1s^−1 [3]: 0.89 × 10^−7 M^−1s^−1

Compound: N[C@@H](Cc1c[nH]cn1)C(=O)O [Histidine]
- k1O2 × 10^−7 M^−1s^−1 [3]: 3.2-3.4 × 10^−7 M^−1s^−1

- diffusion coefficient without the binding effect, Dab (cornea [4]): 134 μm^2/s
- drug contact time at which delivered amount levels off (cornea [4]): 2 h
- drug in second extract, % of the first extract (cornea [4]): 1.6-2.5%
- diffusion coefficient without the binding effect, Dab (sclera [5]): 41 μm^2/s
- drug in 3rd extract relative to the first extract (sclera [5]): 1-3%
- drug in 4th extract relative to the first extract (sclera [5]): ≤ 1%
- drug in second extract, % of the first extract (sclera [5]): 3-6%
- time for the concentration to level off (sclera [5]): approximately 7.5 hours
Compound: riboflavin-5′-monophosphate [reference compound]
- decrease of cross-linking efficacy (destructive tension of corneal strips) (cornea [6]): 76%
- ionization in solution [7]: negatively ionized
- anterior stromal depth in which almost all keratocytes undergo apoptosis (keratocytes): 300-350 μm
- time to full recovery of the keratocyte population (keratocytes): 6-12 months
- side-effects in the posterior globe (posterior globe): almost complete loss of the photoreceptors, the outer nuclear layer and the retinal pigment epithelium (RPE)
- cross-linking rate as % of the rate without singlet oxygen quenchers (collagen gel; 10 mM sodium azide): 12±20%
- modulus change during the last 10 minutes, no irradiation (collagen gel): 32±36 Pa
- ΔG′ over the 30-minute period without irradiation (collagen gel): 72±136 Pa
- modulus change during the 10 minutes after cessation of irradiation (collagen gel): 70±19 Pa
- change of storage modulus ΔG′ over the 30-minute irradiation (collagen gel): 819±85 Pa
- cross-linking rate as % of the rate without singlet oxygen quenchers (collagen gel; 20 mM ascorbic acid): −32±11%
- cross-linking rate as % of the rate without singlet oxygen quenchers (collagen gel; 100 mM sodium azide): −26±23%
- cross-linking rate as % of the optimal rate (0.05% riboflavin) (collagen gel; 0.12% riboflavin concentration, by interpolation): approximately 78%
- cross-linking in the absence of oxygen (collagen gel; in argon): no cross-linking occurred
- rate of change in storage modulus, Ġ′ (decreased by) (collagen gel; [10]): 4.8±2.3 Pa/min
- rate of change in storage modulus, Ġ′ (increased by) (collagen gel; [11]): 28.0±4.7 Pa/min

Compound: N[C@@H](Cc1ccc(O)cc1)C(=O)O [Tyrosine]
- k1O2 × 10^−7 M^−1s^−1 [3]: 0.8 × 10^−7 M^−1s^−1

Compound: O=C([O-])c1ccccc1-c1c2cc(Br)c(=O)c(Br)c-2oc2c(Br)c([O-])c(Br)cc12.[Na+].[Na+] [Eosin Y, eosin Y]
- drug contact time at which delivered amount levels off (cornea [4]; cornea): 2 h
- diffusivity, D (cornea [4]; cornea): 62 μm^2/s and 62 ± 22 μm^2/s
- partition coefficient, k (cornea [4]; cornea): 4.3±0.7 and 4.3
- diffusivity, D (cornea [4]; cornea, listed as eosin Y): 62 μm^2/s
- partition coefficient, k (cornea [4]; cornea, listed as eosin Y): 4.3
- diffusion coefficient without the binding effect, Dab (cornea [4]; cornea, Dab=kD): 267 μm^2/s
- calculated permeability (cornea [4]; through porcine cornea): 0.31 μm/s
- permeability (sclera [5]; sclera): 0.099 μm/s
- time for the concentration to level off (sclera [5]; sclera): approximately 30 hours
- drug in second extract, % of the first extract (sclera [5]; sclera, 2 hours contact time): approximately 20%
- diffusivity, D (sclera [5]; sclera): 6.2 ± 1.7 μm^2/s and 6.2 μm^2/s
- partition coefficient, k (sclera [5]; sclera): 13.0±1.1 and 13.0
- diffusivity, D (sclera [5]; sclera, listed as eosin Y): 6.2 μm^2/s
- partition coefficient, k (sclera [5]; sclera, listed as eosin Y): 13
- diffusion coefficient without the binding effect, Dab (sclera [5]; sclera, Dab=kD): 81 μm^2/s
- characteristic time to penetrate the entire cornea, L^2/(4*D) (cornea [8]): ~15 min
- ionization in solution [7]: negatively ionized
- concentration with excellent cell viability (up to) (cell viability): up to 20 mM
- cross-linking rate as % of the rate without singlet oxygen quenchers (collagen gel; 10 mM ascorbic acid): 43±23%
- modulus change during the last 10 minutes, no irradiation (collagen gel): 59±34 Pa
- ΔG′ over the 30-minute period without irradiation (collagen gel): −23±76 Pa
- modulus change during the 10 minutes after cessation of irradiation (collagen gel): 61±136 Pa
- change of storage modulus ΔG′ over the 30-minute irradiation (collagen gel): 793±118 Pa
- cross-linking rate as % of the rate without singlet oxygen quenchers (collagen gel; 20 mM ascorbic acid): 23±10%
- cross-linking rate as % of the rate without singlet oxygen quenchers (collagen gel; 100 mM ascorbic acid): −7±6%
- cross-linking rate as % of the rate without singlet oxygen quenchers (collagen gel; 100 mM sodium azide): 34±8%
- cross-linking rate in the absence of oxygen (reduced to) (collagen gel; argon vs air): 12%
- rate of change in storage modulus, Ġ′ (increased by) (collagen gel; [10]): 3.4±2.3 Pa/min
- rate of change in storage modulus, Ġ′ (increased by) (collagen gel; [11]): 28.4±5.1 Pa/min
- distribution in the sclera after subconjunctival injection (guinea pig eyes): pink staining from Eosin Y over the entire sclera

Compound: sulforhodamine
- partition coefficient in the sclera (sclera [9]): 13.6

Compound: N[C@@H](Cc1c[nH]c2ccccc12)C(=O)O [Tryptophan]
- k1O2 × 10^−7 M^−1s^−1 [3]: 1.3-3 × 10^−7 M^−1s^−1

Compound: CSCC[C@H](N)C(=O)O [Methionine]
- k1O2 × 10^−7 M^−1s^−1 [3]: 1.6 × 10^−7 M^−1s^−1
